Experimental data: patent publication US6284787A, “Use of R-(+)-α-lipoic acid, R-(-)-dihydrolipoic acid and metabolites in the form of the free acid or as salts or esters or amides for the preparation of drugs for the treatment of diabetes mellitus as well as of its sequelae” (Asta Medica Aktiengesellschaft, priority 1993, dated 2001)

Tests used:
alloxan-induced diabetes = conditions: animal model; cited from earlier work
rat diaphragms = conditions: in vitro, cited from earlier work
GLUT 4 = assay: Translocation of GLUT4 glucose transporters in L6 myotubes; type: cell-based
Experimental: (§1) L6 myotubes in 15 cm dishes (n=4 to 5) were enlisted and incubated for one hour with 2.5 mM lipoate in MEM with 5 mM of glucose and 2% of fetal bovine serum. The cells were removed, homogenized and worked up in fractions (4° C.). The working up was carried out in an HEPES buffer with a defined addition of protease inhibitor. The cell fractions were obtained in 6 defined centrifuging steps. The fractions were added to a 10% polyacrylamide gel for a Western Blot analysis. The glucose transporters were determined with anti-GLUT1 and anti-GLUT4 antibodies using iodine-labeled protein A and autoradiographic detection.

[1] = tested on: GLUT1 Glucose Transporters; assay: Translocation of GLUT1 glucose transporters in L6 myotubes (Western blot of cell fractions); type: cell-based; conditions: for GLUT1 translocation, Light Microsomal Fraction / GLUT1 translocation, Plasma Membrane: one hour, control 1.00
Experimental: as §1

[2] = tested on: streptozotocin-induced diabetes; assay: Diabetes induced tissue damage, streptozotocin-induced diabetes; type: in vivo, Wistar rats; conditions: for mortality in comparison to the control / pathologically changed parameter glycosilated hemoglobin, in words / pathologically changed parameter protein oxidation, in words: streptozotocin-induced diabetes; for % Glycosilated Hemoglobin: 1.65 g/kg of food for 14 weeks, streptozotocin diabetic rats, control 9.7 ± 1.5
Experimental: Thioct acid enantiomers were administered for 14 weeks by mouth, together with the food (1.65 g/kg of food), to female Wistar rats (n=3 to 6/group) in separate groups.
In the eighth week, streptozotocin diabetes was induced in the animals. Six weeks after the induction of the diabetes, the surviving animals were sacrificed. Tissue was taken and analyzed.

GLUT4 = assay: Cellular content of GLUT4 glucose transporters in L6 myotubes; type: cell-based; conditions: for Content of GLUT4: 2.5 mM, 4 hours of incubation, control 1.00; for cellular content of GLUT4, in words: after four hours of incubation
Experimental: (§2) L6 myotubes were incubated for 4 hours with 2.5 mM lipoic acid enantiomers in an MEM medium with 2% fetal bovine serum and 5 mM glucose. The glucose transporters were detected as described above. The membrane fraction is obtained after a single centrifugation at 210,000 g.

L6 myotubes = assay: Glucose assimilation in muscle cells (3H-2-desoxyglucose uptake); type: cell-based; conditions: for effect on glucose assimilation together with insulin, in words: 2.5 mM with insulin 200 nM; for effect on glucose assimilation, in words: compared with other enantiomer or insulin (200 nM); for Glucose Assimilation R / Glucose Assimilation S: table 1; for Glucose Assimilation Insulin: insulin 200 nM
Experimental: The tissue muscle cells (L6 myotubes) were prepared in 24-bole plates and differentiated. After incubation with the test substances, an assay was carried out to determine hexose assimilation (^3 H-2-desoxyglucose, 10 μM, 10 minutes). […] After the cells were washed and then lysed with NaOH, the radioactivity absorbed was measured in a counter. Parallel experimental batches were carried out with cytochalasin-B, in order to determine the glucose transporter-dependent glucose translocations.
The results can be expressed as pmol/min×mg of protein.

GLUT1 = assay: Cellular content of GLUT1 glucose transporters in L6 myotubes; type: cell-based; conditions: for Content of GLUT1: L6 myotubes, 2.5 mM, 4 hours of incubation, control 1.00; for cellular content of GLUT1, in words: after four hours of incubation
Experimental: as §2

pyruvate dehydrogenase = target: T1, pyruvate dehydrogenase (Rattus norvegicus, UniProt P08461+P26284+P49432+Q6P6R2); assay: Pyruvate dehydrogenase activity after chronic administration in tissues of the spontaneously diabetic rat; type: in vivo; conditions: for Pyruvate dehydrogenase activity, trend: spontaneously diabetic rats, 50 mg/kg daily in tail vein, heart muscle, trend after two administrations
T1 construct: The tissue was homogenized; from tissue; host or cells: heart muscle of spontaneously diabetic BB rats
Experimental: After the manifestation of the diabetes, spontaneously diabetic rats (BB-Wol BB, of the Moellegard Company, Denmark, n=10/group) received 0.3 mL of neutral 0.12 M (corresponding to 50 mg/kg of body weight) R-(+)-α-lipoic acid or S-(-)-α-lipoic acid daily, administered in the vein of the tail. A control group received physiological salt solution. After 7 days, the animals were sacrificed. The pyruvate dehydrogenase activity was determined in the heart muscle. The tissue was homogenized.
Pyruvate+NAD^+ +CoA→Acetyl-CoA+CO2 +NADH+H^+
The extinction of the reduced coenzyme is measured at 339 nm in cuvettes with a Shimadzu UV 210 Detector at 37° C. The isolation of the enzyme complex (R. Koeplin, Ph.D. Thesis, University of Tuebingen, FRG, 1988, C. J. Stanley, R. N. Perham, Biochem. J. 191, 147-154, 1980) and the enzyme assay (O. H. Lowry et al. J. Biol. Chem. 256, 815-822, 1951) were carried out as described. The protein was measured by the method of Loary (N. Bashan et al., Am. J. Physiol. m262 (Cell Physiol. 31): C682-690, 1992).

T1 sequence (P26284 30-390): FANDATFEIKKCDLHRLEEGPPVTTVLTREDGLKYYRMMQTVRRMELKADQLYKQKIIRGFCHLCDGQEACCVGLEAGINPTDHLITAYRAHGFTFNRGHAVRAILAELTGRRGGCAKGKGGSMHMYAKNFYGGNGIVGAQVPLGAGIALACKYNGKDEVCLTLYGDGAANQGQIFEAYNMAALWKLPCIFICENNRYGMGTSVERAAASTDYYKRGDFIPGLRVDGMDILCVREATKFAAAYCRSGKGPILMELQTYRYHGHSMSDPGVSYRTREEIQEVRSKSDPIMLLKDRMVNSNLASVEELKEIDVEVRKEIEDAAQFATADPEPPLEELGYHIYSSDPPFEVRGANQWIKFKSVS
T1 sequence (P49432 31-359): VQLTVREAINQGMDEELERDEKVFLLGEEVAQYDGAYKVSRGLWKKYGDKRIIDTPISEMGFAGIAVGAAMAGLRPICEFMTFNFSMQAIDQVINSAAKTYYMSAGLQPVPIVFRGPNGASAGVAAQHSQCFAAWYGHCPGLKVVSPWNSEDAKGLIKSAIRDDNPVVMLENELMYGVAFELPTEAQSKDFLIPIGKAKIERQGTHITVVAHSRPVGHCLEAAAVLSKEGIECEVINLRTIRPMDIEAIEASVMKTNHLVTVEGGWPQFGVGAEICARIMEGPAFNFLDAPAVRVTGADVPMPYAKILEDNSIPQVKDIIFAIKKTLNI
T1 sequence (P08461 86-632 limits assumed): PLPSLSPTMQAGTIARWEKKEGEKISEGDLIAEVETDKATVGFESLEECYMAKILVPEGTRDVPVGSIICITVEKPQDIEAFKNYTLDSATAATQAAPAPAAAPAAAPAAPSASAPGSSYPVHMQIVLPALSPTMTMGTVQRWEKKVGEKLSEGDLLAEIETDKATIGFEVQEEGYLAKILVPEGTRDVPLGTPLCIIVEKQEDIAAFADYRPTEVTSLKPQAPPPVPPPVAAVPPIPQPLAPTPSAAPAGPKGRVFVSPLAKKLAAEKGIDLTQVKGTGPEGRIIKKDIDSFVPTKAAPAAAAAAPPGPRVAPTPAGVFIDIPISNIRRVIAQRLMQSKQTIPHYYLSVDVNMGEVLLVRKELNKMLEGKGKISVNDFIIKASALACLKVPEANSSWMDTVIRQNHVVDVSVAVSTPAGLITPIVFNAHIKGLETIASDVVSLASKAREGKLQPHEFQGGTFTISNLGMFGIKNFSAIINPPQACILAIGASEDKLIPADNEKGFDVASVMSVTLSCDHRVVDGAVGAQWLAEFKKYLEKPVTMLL
T1 sequence (Q6P6R2 36-509): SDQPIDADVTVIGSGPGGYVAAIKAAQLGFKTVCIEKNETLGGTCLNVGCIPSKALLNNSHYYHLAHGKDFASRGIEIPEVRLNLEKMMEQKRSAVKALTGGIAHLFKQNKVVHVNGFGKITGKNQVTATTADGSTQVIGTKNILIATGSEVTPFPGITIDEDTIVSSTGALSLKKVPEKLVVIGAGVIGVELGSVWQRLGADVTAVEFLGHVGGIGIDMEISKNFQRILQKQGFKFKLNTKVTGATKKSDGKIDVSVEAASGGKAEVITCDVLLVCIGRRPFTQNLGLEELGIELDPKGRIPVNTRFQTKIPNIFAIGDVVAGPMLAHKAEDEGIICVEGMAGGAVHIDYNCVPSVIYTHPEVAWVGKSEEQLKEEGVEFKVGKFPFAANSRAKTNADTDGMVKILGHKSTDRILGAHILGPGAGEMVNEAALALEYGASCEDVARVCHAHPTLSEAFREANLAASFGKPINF

Molecule	translocation of glucose transporters GLUT 4 from the cytosol to the plasma membrane, in words (GLUT 4)	translocation of glucose transporters Glut 1 from the cytosol to the plasma membrane, in words [1]	GLUT1 translocation, Light Microsomal Fraction ([1]; table 4, enantiomers 2.5 mM) [relative units]	GLUT1 translocation, Plasma Membrane ([1]; table 4, enantiomers 2.5 mM) [relative units]	GLUT1 translocation, Light Microsomal Fraction ([1]; table 5, enantiomers 2.5 mM) [relative units]	mortality in comparison to the control [2]	pathologically changed parameter glycosilated hemoglobin, in words [2]	pathologically changed parameter protein oxidation, in words [2]	% Glycosilated Hemoglobin ([2]; table 7) [%]	% Glycosilated Hemoglobin ([2]; table 8) [%]	% Glycosilated Hemoglobin ([2]; table 9) [%]	Content of GLUT4 (GLUT4; L6 myotubes) [arbitrary units]	cellular content of GLUT4, in words (GLUT4)	effect on glucose assimilation together with insulin, in words (L6 myotubes)	effect on glucose assimilation, in words (L6 myotubes; 2.5 mM)	Content of GLUT1 (GLUT1) [arbitrary units]	cellular content of GLUT1, in words (GLUT1)	Pyruvate dehydrogenase activity, trend (pyruvate dehydrogenase)	also measured
O=C(O)CCCCC1CCSS1 (racemic) [R,S-(+,-)-α-lipoic acid]	–	–	–	–	–	–	–	–	–	–	–	–	–	–	–	–	–	–	effect on blood sugar (alloxan-induced diabetes): blood sugar-lowering effect; effect relative to that of insulin (rat diaphragms; Haugaard): additive; glucose assimilation by muscles (rat diaphragms; racemate from Calbiochem): increases
O=C(O)CCCC[C@@H]1CCSS1 [R-(+)-α-lipoic acid]	stimulates	stimulates	0.46 ± 0.06	1.56 ± 0.25	0.46 ± 0.06	reduced	corrects	corrects	8.4 ± 1.3	8.4 ± 1.3	8.4 ± 1.3	1.55 ± 0.24	increases	not additive	comparable to that of insulin	1.81 ± 0.01	increases	increased	stimulation of glucose assimilation compared to the S enantiomer, factor (L6 myotubes; 2.5 mM): greater than 2; Glucose Assimilation R (L6 myotubes; 2.5 mM, incubation time 15): 16.7 ± 0.6 pmol/mg/min; Glucose Assimilation R (L6 myotubes; 2.5 mM, incubation time 30): 15.9 ± 0.9 pmol/mg/min; Glucose Assimilation R (L6 myotubes; 2.5 mM, incubation time 60): 26.1 ± 0.9 pmol/mg/min; Glucose Assimilation R (L6 myotubes; 2.5 mM, incubation time 120): 27.0 ± 0.4 pmol/mg/min; Glucose Assimilation R-(+)-α-Liponic Acid (L6 myotubes; table 2, 2.5 mM, incubation 15 min): 23.2 ± 0.5 pmol/mg/min; Glucose Assimilation R-(+)-α-Liponic Acid (L6 myotubes; table 2, 2.5 mM, incubation 30 min): 21.1 ± 0.4 pmol/mg/min; Glucose Assimilation R-(+)-α-Liponic Acid (L6 myotubes; table 2, 2.5 mM, incubation 60 min): 25.7 ± 0.5 pmol/mg/min
O=C(O)CCCC[C@H]1CCSS1 [S-(-)-α-lipoic acid, reference compound]	has no effect or has an inhibiting effect	has no effect or has an inhibiting effect	0.38 ± 0.09	0.93 ± 0.37	0.38 ± 0.09	increased	lesser effect to no effect	lesser effect to no effect	10.7 ± 2.1	10.7 ± 2.1	10.7 ± 2.1	0.79 ± 0.47	has no effect or lowers the cellular content	decreases the effect of insulin	less effective	1.08 ± 0.01	has no effect or lowers the cellular content	Lowered	total content of glucose transporters in the cell (GLUT4), in words (GLUT4; translocation experiment, L6 myotubes): appears to lower; Glucose Assimilation S (L6 myotubes; 2.5 mM, incubation time 15): 16.3 ± 0.3 pmol/mg/min; Glucose Assimilation S (L6 myotubes; 2.5 mM, incubation time 30): 14.8 ± 0.7 pmol/mg/min; Glucose Assimilation S (L6 myotubes; 2.5 mM, incubation time 60): 21.6 ± 0.4 pmol/mg/min; Glucose Assimilation S (L6 myotubes; 2.5 mM, incubation time 120): 20.5 ± 0.8 pmol/mg/min; Glucose Assimilation S-(-)α-Liponic Acid (L6 myotubes; table 3, 2.5 mM, incubation 15 min): 14.8 ± 0.4 pmol/mg/min; Glucose Assimilation S-(-)α-Liponic Acid (L6 myotubes; table 3, 2.5 mM, incubation 30 min): 13.3 ± 0.4 pmol/mg/min; Glucose Assimilation S-(-)α-Liponic Acid (L6 myotubes; table 3, 2.5 mM, incubation 60 min): 16.0 ± 0.2 pmol/mg/min; pyruvate dehydrogenase, effect in animal experiments (pyruvate dehydrogenase; animal experiments): inhibited
Insulin: Insulin, added at a concentration of 200 nM	stimulates	stimulates	–	1.07 ± 0.14	–	–	–	–	–	–	–	–	–	–	–	–	–	–	GLUT1 translocation, Plasma Membrane ([1]; table 5, enantiomers 2.5 mM): 1.07 ± 0.14 relative units; Glucose Assimilation Insulin (L6 myotubes; table 2, incubation 15 min): 24.7 ± 0.9 pmol/mg/min; Glucose Assimilation Insulin (L6 myotubes; table 2, incubation 30 min): 21.6 ± 0.4 pmol/mg/min; Glucose Assimilation Insulin (L6 myotubes; table 2, incubation 60 min): 23.7 ± 0.5 pmol/mg/min; Glucose Assimilation Insulin (L6 myotubes; table 3, incubation 15 min): 17.7 ± 0.3 pmol/mg/min; Glucose Assimilation Insulin (L6 myotubes; table 3, incubation 30 min): 16.3 ± 0.5 pmol/mg/min; Glucose Assimilation Insulin (L6 myotubes; table 3, incubation 60 min): 22.3 ± 0.5 pmol/mg/min
